Laboratory results published in patent US6737383B1, “Herbicidal oxadiazolidines” (priority 1999, dated 2004).

Tests used:
bedstraw = assay: Test B pre/postemergence bedstraw; assay type: in vivo, Galium aparine
Summary of the method: (§1)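 Test chemicals in a non-phytotoxic solvent mixture with surfactant were sprayed preemergence onto planted seeds and postemergence onto plants 2 to 18 cm tall (1- to 4-leaf stage). After twelve to sixteen days in a greenhouse, injury was visually rated against untreated controls from 0 (no effect) to 10 (complete control).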

blackgrass = assay: Test B pre/postemergence blackgrass; assay type: in vivo, Alopecurus myosuroides
Summary of the method: as §1

surinam grass = assay: Test B pre/postemergence surinam grass; assay type: in vivo, Brachiaria decumbens
Summary of the method: as §1

cocklebur = assay: Test B pre/postemergence cocklebur; assay type: in vivo, Xanthium strumarium
Summary of the method: as §1

corn = assay: Test B pre/postemergence corn; assay type: in vivo, Zea mays
Summary of the method: as §1

crabgrass = assay: Test B pre/postemergence crabgrass; assay type: in vivo, Digitaria sanguinalis
Summary of the method: as §1

giant foxtail = assay: Test B pre/postemergence giant foxtail; assay type: in vivo, Setaria faberii
Summary of the method: as §1

morningglory = assay: Test B pre/postemergence morningglory; assay type: in vivo, Ipomoea hederacea
Summary of the method: as §1

pigweed = assay: Test B pre/postemergence pigweed; assay type: in vivo, Amaranthus retroflexus
Summary of the method: as §1

rape = assay: Test B pre/postemergence rape; assay type: in vivo, Brassica napus
Summary of the method: as §1

soybean = assay: Test B pre/postemergence soybean; assay type: in vivo, Glycine max
Summary of the method: as §1

sugar beet = assay: Test B pre/postemergence sugar beet; assay type: in vivo, Beta vulgaris
Summary of the method: as §1

velvetleaf = assay: Test B pre/postemergence velvetleaf; assay type: in vivo, Abutilon theophrasti
Summary of the method: as §1

wheat = assay: Test B pre/postemergence wheat; assay type: in vivo, Triticum aestivum
Summary of the method: as §1

wild oat = assay: Test B pre/postemergence wild oat; assay type: in vivo, Avena fatua
Summary of the method: as §1

purple nutsedge = assay: Test B pre/postemergence purple nutsedge; assay type: in vivo, Cyperus rotundus
Summary of the method: as §1

[1] = Postemergence, Rate 62 g/ha, scale 0 to 10, 0 is no effect, 10 is complete control
[2] = Postemergence, Rate 125 g/ha, scale of 0 to 10 where 0 is no effect and 10 is complete control
[3] = Postemergence, Rate 500 g/ha, scale 0 (no effect) to 10 (complete control)
[4] = Preemergence, Rate 250 g/ha, scale 0 (no effect) to 10 (complete control)
[5] = Rate 62 g/ha, Preemergence, scale 0 to 10
[6] = Rate 125 g/ha, Preemergence, scale 0 to 10 (0 no effect, 10 complete control)
[7] = Rate 250 g/ha, Postemergence, scale 0 to 10, 0 is no effect, 10 is complete control
[8] = Rate 500 g/ha, Preemergence, scale 0 to 10 (0 no effect, 10 complete control)
[9] = Preemergence, Rate 125 g/ha, scale of 0 to 10 where 0 is no effect and 10 is complete control
[10] = Rate 1000 g/ha, Preemergence, scale 0 to 10 (0 no effect, 10 complete control)

In the case of `CON=CC(C)n1c(=O)on(C(=O)N(c2ccccc2)C(C)C)c1=O` (centres unmarked) [Compound 790], the “Plant response rating, Bedstraw” value (bedstraw; [1]) was 0, the “Bedstraw plant response rating” value (bedstraw; [2]) was 0 and the “Bedstraw plant response rating” value (bedstraw; [3]) was 5. The “Bedstraw plant response rating” value (bedstraw; [4]) was 7, the “Bedstraw plant response rating” value (bedstraw; [5]) was 0 and the “Bedstraw plant response rating” value (bedstraw; [6]) was 3. The “Bedstraw plant response rating” value (bedstraw; [7]) was 0, the “Bedstraw plant response rating” value (bedstraw; [8]) was 9 and the “Plant response rating, Blackgrass” value (blackgrass; [1]) was 4. The “Blackgrass plant response rating” value (blackgrass; [2]) was 5, the “Blackgrass plant response rating” value (blackgrass; [3]) was 5 and the “Blackgrass plant response rating” value (blackgrass; [4]) was 9. The “Blackgrass plant response rating” value (blackgrass; [5]) was 8, the “Blackgrass plant response rating” value (blackgrass; [6]) was 9 and the “Blackgrass plant response rating” value (blackgrass; [7]) was 5. The “Blackgrass plant response rating” value (blackgrass; [8]) was 10, the “Plant response rating, B. signalgrass” value (surinam grass; [1]) was 2 and the “B. signalgrass plant response rating” value (surinam grass; [2]) was 6. For the same compound, the “B. signalgrass plant response rating” value (surinam grass; [4]) was 9, the “B. signalgrass plant response rating” value (surinam grass; Rate 62 g/ha, Preemergence, scale 0 (no effect) to 10 (complete control)) was 8 and the “B. signalgrass plant response rating” value (surinam grass; [6]) was 9. For the same compound, the “B. signalgrass plant response rating” value (surinam grass; [7]) was 7, the “B. signalgrass plant response rating” value (surinam grass; Rate 500 g/ha, Postemergence, scale 0 to 10, 0 is no effect, 10 is complete control) was 7 and the “B. signalgrass plant response rating” value (surinam grass; [8]) was 9. For the same compound, the “Plant response rating, Cocklebur” value (cocklebur; [1]) was 0, the “Cocklebur plant response rating” value (cocklebur; [2]) was 0 and the “Cocklebur plant response rating” value (cocklebur; [3]) was 0. The “Cocklebur plant response rating” value (cocklebur; [4]) was 10, the “Cocklebur plant response rating” value (cocklebur; [5]) was 0 and the “Cocklebur plant response rating” value (cocklebur; [6]) was 0. The “Cocklebur plant response rating” value (cocklebur; [7]) was 0, the “Cocklebur plant response rating” value (cocklebur; [8]) was 10 and the “Plant response rating, Corn” value (corn; [1]) was 0. For the same compound, the “Corn plant response rating” value (corn; [2]) was 2, the “Corn plant response rating” value (corn; [3]) was 4 and the “Corn plant response rating” value (corn; [4]) was 8. For the same compound, the “Corn plant response rating” value (corn; [5]) was 2, the “Corn plant response rating” value (corn; [6]) was 7 and the “Corn plant response rating” value (corn; [7]) was 4. For the same compound, the “Corn plant response rating” value (corn; [8]) was 9, the “Plant response rating, Crabgrass” value (crabgrass; [1]) was 9 and the “Crabgrass plant response rating” value (crabgrass; [3]) was 9. The “Crabgrass plant response rating” value (crabgrass; [4]) was 10, the “Crabgrass plant response rating” value (crabgrass; [5]) was 10 and the “Crabgrass plant response rating” value (crabgrass; [6]) was 10. For the same compound, the “Crabgrass plant response rating” value (crabgrass; [7]) was 9, the “Crabgrass plant response rating” value (crabgrass; [8]) was 10 and the “Plant response rating, Giant foxtail” value (giant foxtail; [1]) was 9. The “Giant foxtail plant response rating” value (giant foxtail; [2]) was 9, the “Giant foxtail plant response rating” value (giant foxtail; [3]) was 8 and the “Giant foxtail plant response rating” value (giant foxtail; [4]) was “lo”. The “Giant foxtail plant response rating” value (giant foxtail; [5]) was 10, the “Giant foxtail plant response rating” value (giant foxtail; [6]) was 10 and the “Giant foxtail plant response rating” value (giant foxtail; [7]) was 8. For the same compound, the “Giant foxtail plant response rating” value (giant foxtail; [8]) was 10, the “Plant response rating, Morningglory” value (morningglory; [1]) was 2 and the “Morningglory plant response rating” value (morningglory; [2]) was 4. For the same compound, the “Morningglory plant response rating” value (morningglory; [3]) was 10, the “Morningglory plant response rating” value (morningglory; [5]) was 0 and the “Morningglory plant response rating” value (morningglory; [6]) was 0. The “Morningglory plant response rating” value (morningglory; [7]) was 7, the “Morningglory plant response rating” value (morningglory; [8]) was 7 and the “Plant response rating, Redroot pigweed” value (pigweed; [1]) was 0. The “Redroot pigweed plant response rating” value (pigweed; [2]) was 5, the “Redroot pigweed plant response rating” value (pigweed; [3]) was 5 and the “Redroot pigweed plant response rating” value (pigweed; [5]) was 2. For the same compound, the “Redroot pigweed plant response rating” value (pigweed; [6]) was 6, the “Redroot pigweed plant response rating” value (pigweed; [7]) was 5 and the “Redroot pigweed plant response rating” value (pigweed; [8]) was 10. The “Plant response rating, Rape” value (rape; [1]) was 0, the “Rape plant response rating” value (rape; [2]) was 0 and the “Rape plant response rating” value (rape; [3]) was 3. The “Rape plant response rating” value (rape; [5]) was 2, the “Rape plant response rating” value (rape; [6]) was 4 and the “Rape plant response rating” value (rape; [7]) was 3. For the same compound, the “Rape plant response rating” value (rape; [8]) was 8, the “Plant response rating, Soybean” value (soybean; [1]) was 2 and the “Soybean plant response rating” value (soybean; [3]) was 4. For the same compound, the “Soybean plant response rating” value (soybean; [5]) was 0, the “Soybean plant response rating” value (soybean; [6]) was 0 and the “Soybean plant response rating” value (soybean; [7]) was 4. The “Soybean plant response rating” value (soybean; [8]) was 2, the “Plant response rating, Sugarbeets” value (sugar beet; [1]) was 0 and the “Sugarbeets plant response rating” value (sugar beet; [3]) was 7. The “Sugarbeets plant response rating” value (sugar beet; [5]) was 1, the “Sugarbeets plant response rating” value (sugar beet; [6]) was 2 and the “Sugarbeets plant response rating” value (sugar beet; [7]) was 0. For the same compound, the “Sugarbeets plant response rating” value (sugar beet; [8]) was 7, the “Plant response rating, Velvetleaf” value (velvetleaf; [1]) was 4 and the “Velvetleaf plant response rating” value (velvetleaf; [3]) was 7. The “Velvetleaf plant response rating” value (velvetleaf; [5]) was 0, the “Velvetleaf plant response rating” value (velvetleaf; [6]) was 2 and the “Velvetleaf plant response rating” value (velvetleaf; [7]) was 5. For the same compound, the “Velvetleaf plant response rating” value (velvetleaf; [8]) was 7, the “Plant response rating, Wheat” value (wheat; [1]) was 2 and the “Wheat plant response rating” value (wheat; [3]) was 5. The “Wheat plant response rating” value (wheat; [5]) was 0, the “Wheat plant response rating” value (wheat; [6]) was 2 and the “Wheat plant response rating” value (wheat; [7]) was 4. For the same compound, the “Wheat plant response rating” value (wheat; [8]) was 9, the “Plant response rating, Wild oats” value (wild oat; [1]) was 0 and the “Wild oats plant response rating” value (wild oat; [3]) was 3. For the same compound, the “Wild oats plant response rating” value (wild oat; [5]) was 0, the “Wild oats plant response rating” value (wild oat; [6]) was 6 and the “Wild oats plant response rating” value (wild oat; [7]) was 0. For the same compound, the “Wild oats plant response rating” value (wild oat; [8]) was 10, the “Plant response rating, Nutsedge” value (purple nutsedge; [1]) was 0 and the “Nutsedge plant response rating” value (purple nutsedge; [2]) was 0. The “Nutsedge plant response rating” value (purple nutsedge; [3]) was 7, the “Nutsedge plant response rating” value (purple nutsedge; [5]) was 0 and the “Nutsedge plant response rating” value (purple nutsedge; [6]) was 0. For the same compound, the “Nutsedge plant response rating” value (purple nutsedge; [7]) was 5 and the “Nutsedge plant response rating” value (purple nutsedge; [8]) was 0.
`COC(=O)C(c1ccccc1)n1c(=O)on(C(=O)N(c2ccccc2)C(C)C)c1=O` (centres unmarked) [Compound 723] was tested, and the “Plant response rating, Bedstraw” value (bedstraw; [9]) was 0, the “Bedstraw plant response rating” value (bedstraw; [4]) was 0 and the “Bedstraw plant response rating” value (bedstraw; [8]) was 0. For the same compound, the “Plant response rating, Bedstraw” value (bedstraw; [10]) was 0, the “Plant response rating, Blackgrass” value (blackgrass; [9]) was 0 and the “Blackgrass plant response rating” value (blackgrass; [4]) was 0. The “Blackgrass plant response rating” value (blackgrass; [8]) was 2, the “Plant response rating, Blackgrass” value (blackgrass; [10]) was 6 and the “Plant response rating, B. signalgrass” value (surinam grass; [9]) was 0. The “B. signalgrass plant response rating” value (surinam grass; [4]) was 2, the “B. signalgrass plant response rating” value (surinam grass; [8]) was 2 and the “Plant response rating, B. signalgrass” value (surinam grass; [10]) was 6. For the same compound, the “Plant response rating, Cocklebur” value (cocklebur; [9]) was 0, the “Cocklebur plant response rating” value (cocklebur; [4]) was 0 and the “Cocklebur plant response rating” value (cocklebur; [8]) was 0. For the same compound, the “Plant response rating, Cocklebur” value (cocklebur; [10]) was 0, the “Plant response rating, Corn” value (corn; [9]) was 0 and the “Corn plant response rating” value (corn; [4]) was 0. For the same compound, the “Corn plant response rating” value (corn; [8]) was 0, the “Plant response rating, Corn” value (corn; [10]) was 0 and the “Plant response rating, Crabgrass” value (crabgrass; [9]) was 2. The “Crabgrass plant response rating” value (crabgrass; [4]) was 2, the “Crabgrass plant response rating” value (crabgrass; [8]) was 9 and the “Plant response rating, Crabgrass” value (crabgrass; [10]) was 9. The “Plant response rating, Giant foxtail” value (giant foxtail; [9]) was 7, the “Giant foxtail plant response rating” value (giant foxtail; [4]) was 9 and the “Giant foxtail plant response rating” value (giant foxtail; [8]) was 10. The “Plant response rating, Giant foxtail” value (giant foxtail; [10]) was 10, the “Plant response rating, Morningglory” value (morningglory; [9]) was 0 and the “Morningglory plant response rating” value (morningglory; [4]) was 0. The “Morningglory plant response rating” value (morningglory; [8]) was 0, the “Plant response rating, Morningglory” value (morningglory; [10]) was 0 and the “Plant response rating, Redroot pigweed” value (pigweed; [9]) was 0. For the same compound, the “Redroot pigweed plant response rating” value (pigweed; [4]) was 0, the “Redroot pigweed plant response rating” value (pigweed; [8]) was 0 and the “Plant response rating, Redroot pigweed” value (pigweed; [10]) was 5. For the same compound, the “Plant response rating, Rape” value (rape; [9]) was 0, the “Rape plant response rating” value (rape; [4]) was 0 and the “Rape plant response rating” value (rape; [8]) was 0. For the same compound, the “Plant response rating, Rape” value (rape; [10]) was 2, the “Plant response rating, Soybean” value (soybean; [9]) was 0 and the “Soybean plant response rating” value (soybean; [4]) was 0. The “Soybean plant response rating” value (soybean; [8]) was 0, the “Plant response rating, Soybean” value (soybean; [10]) was 0 and the “Plant response rating, Sugarbeets” value (sugar beet; [9]) was 0. The “Sugarbeets plant response rating” value (sugar beet; [4]) was 0, the “Sugarbeets plant response rating” value (sugar beet; [8]) was 0 and the “Plant response rating, Sugarbeets” value (sugar beet; [10]) was 0. For the same compound, the “Plant response rating, Velvetleaf” value (velvetleaf; [9]) was 0, the “Velvetleaf plant response rating” value (velvetleaf; [4]) was 0 and the “Velvetleaf plant response rating” value (velvetleaf; [8]) was 0. The “Plant response rating, Velvetleaf” value (velvetleaf; [10]) was 0, the “Plant response rating, Wheat” value (wheat; [9]) was 0 and the “Wheat plant response rating” value (wheat; [4]) was 0. For the same compound, the “Wheat plant response rating” value (wheat; [8]) was 0, the “Plant response rating, Wheat” value (wheat; [10]) was 0 and the “Plant response rating, Wild oats” value (wild oat; [9]) was 0. For the same compound, the “Wild oats plant response rating” value (wild oat; [4]) was 0, the “Wild oats plant response rating” value (wild oat; [8]) was 0 and the “Plant response rating, Wild oats” value (wild oat; [10]) was 8. The “Plant response rating, Nutsedge” value (purple nutsedge; [9]) was 0, the “Nutsedge plant response rating” value (purple nutsedge; [4]) was 0 and the “Plant response rating, Nutsedge” value (purple nutsedge; [10]) was 0.
